Measured values from publication PMC9943626, “CS27109, A Selective Thyroid Hormone Receptor-β Agonist Alleviates Metabolic-Associated Fatty Liver Disease in Murine Models” (International Journal of Endocrinology, 2023).
Like-named read-outs stand apart in the source and are kept apart here.

Assays:
[1] = Tissue distribution in SD rat; assay type: in vivo; conditions: for concentration at 2 h / concentration at 8 h: male, 10 mg/kg oral gavage once
From the text: [Worded in the source for another organism; this organism is reported under the same test.] Half of mice for each group (n = 3) were sacrificed 2H and 8H after drug administration, respectively. Blood, heart, and liver were collected at each time point. Blood was processed and detected as mentioned previously. The heart and liver were homogenized and added extractant. The protein of tissue samples was precipitated by vortex oscillation, and the supernatant was collected and determined by LC-MS/MS procedures.

HFD SD rat model = test: HFD SD rat model, biochemical, organ weight ratio, liver lipid and liver pathology; assay type: in vivo; conditions: for Liver TC / Liver TG: HFD SD rat liver; for Liver TC / Liver TG / TG / HDL-c / LDL-c / TC / ALT / AST / H/B (heart/body weight ratio) / L/B (liver/body weight ratio): mean ± SD; for Liver TC: model 13 ± 2.2, normal 6.0 ± 0.76; for Liver TG: model 102 ± 36, normal 0.75 ± 12; for TG / HDL-c / LDL-c / TC / ALT / AST: HFD SD rat serum; for TG: model 0.82 ± 0.73, normal 0.53 ± 0.34; for HDL-c: model 1.2 ± 0.44, normal 1.1 ± 0.13; for LDL-c: model 9.7 ± 6.1, normal 0.28 ± 0.06; for TC: model 20 ± 13, normal 1.5 ± 0.20; for ALT: model 166 ± 95, normal 32 ± 6.8; for AST: model 365 ± 212, normal 103 ± 21; for H/B (heart/body weight ratio): model 0.24 ± 0.02, normal 0.28 ± 0.02; for L/B (liver/body weight ratio): model 5.1 ± 0.75, normal 2.8 ± 0.26
Method: SD rat study: 58 SD rats ♂ aged 5–6 weeks were purchased from Beijing Huafukang Biotechnology Co., Ltd. 9 animals were kept with a food control diet as normal control, and the other 49 animals were fed 40% fat, 1.25% cholesterol and 0.5% sodium cholate (HFD, D12109C, SYSE BIO, Changzhou, China) as a model group. […] Animals in the normal and model groups were given solvent by oral gavage. All drugs, including solvent, were administered consecutively for 4 weeks and once a day. After sacrifice, blood was collected and serum was isolated for the AST, ALT, TG, TC, LDL-c, and HDL-c test, and livers and hearts were weighed to calculate the liver weight ratio and the heart weight ratio, respectively. The right lobe of the liver of each rat was harvested for the TG and TC test (A110-1-1 and A111-1-1, Nanjing Jiancheng Institute of Bioengineering, Nanjing, China) according to the manufacturer's instructions. The left lobe of the liver was collected for hematoxylin-eosin staining (H and E staining) to quantify liver steatosis, inflammation, and ballooning.
(§1) The liver samples were fixed in 10% formalin and embedded in paraffin using standard methods. The 4 μm paraffin sections were then assessed for liver histology by H and E staining and liver fibrosis by sirius red staining. The stained sections were panoramic scanned with a NanoZoomer Digital Pathology scanner (S210, Hamamatsu, Japan), and then observed with different visual fields at different magnifications, and scored for different liver lobes in the sections. The total NAS score represents the sum of the scores for steatosis (0–3), lobular inflammation (0–3), and ballooning (0–2), and ranges from 0–8 [30]. VIS7.0 software was used to analyze the area of liver fibrosis in the panoramic scanning SR staining sections, and the percentage of liver fibrosis area in the whole section area was calculated.

[2] = Observation of diarrhea in treated animals; assay type: in vivo, rodents; conditions: animal studies
WD + CCL4 mouse model = test: WD + CCL4 mouse model, biochemical, liver weight ratio and liver pathology; assay type: in vivo, C57/B6 mouse; conditions: for LDL-c / TG / HDL-c / TC / CK activity / AST / ALT: WD + CCL4 mouse serum; for LDL-c / TG / HDL-c / TC / CK activity / AST / ALT / L/B (liver/body weight ratio): mean ± SD; for LDL-c: model 1.1 ± 0.35, normal 0.43 ± 0.04; for TG: model 1.2 ± 0.34, normal 0.91 ± 0.14; for HDL-c: model 1.5 ± 0.25, normal 2.0 ± 0.08; for TC: model 4.1 ± 0.97, normal 3.0 ± 0.10; for CK activity: model 345 ± 268, normal 334 ± 193; for AST: model 10245 ± 4955, normal 116 ± 71; for ALT: model 14003 ± 4205, normal 54 ± 15; for L/B (liver/body weight ratio): model 3.5 ± 0.27, normal 3.5 ± 0.27
Method: C57/B6 mouse study: 61 C57/B6 mice ♂ aged 6–7 weeks were purchased from Beijing Vital River Laboratory Animal Technology Co., Ltd. Six animals were kept with a chow diet as normal control, and the other 55 animals were fed 60% fat diet (Western diet, D12492, Research diet) as the model group. […] Animals in the normal and model groups were given solvent by oral gavage. All drugs, including solvent, were administered consecutively for 4 weeks and once a day. After sacrifice, blood was collected and serum was isolated for the AST, ALT, TG, TC, LDL-c, HDL-c, and CK tests, and the livers were weighed to calculate the liver weight ratio. The left lobe of the liver of each mouse was collected for hematoxylin-eosin staining (H and E staining) and sirius red staining.
as §1

hERG = molecular target: T1, hERG (Homo sapiens, UniProt Q12809); test: hERG test (QPatch HTX); assay type: cell-based
T1 construct: Ice Bioscience Co., Ltd. (Beijing, China)
T1 sequence (Q12809 whole entry): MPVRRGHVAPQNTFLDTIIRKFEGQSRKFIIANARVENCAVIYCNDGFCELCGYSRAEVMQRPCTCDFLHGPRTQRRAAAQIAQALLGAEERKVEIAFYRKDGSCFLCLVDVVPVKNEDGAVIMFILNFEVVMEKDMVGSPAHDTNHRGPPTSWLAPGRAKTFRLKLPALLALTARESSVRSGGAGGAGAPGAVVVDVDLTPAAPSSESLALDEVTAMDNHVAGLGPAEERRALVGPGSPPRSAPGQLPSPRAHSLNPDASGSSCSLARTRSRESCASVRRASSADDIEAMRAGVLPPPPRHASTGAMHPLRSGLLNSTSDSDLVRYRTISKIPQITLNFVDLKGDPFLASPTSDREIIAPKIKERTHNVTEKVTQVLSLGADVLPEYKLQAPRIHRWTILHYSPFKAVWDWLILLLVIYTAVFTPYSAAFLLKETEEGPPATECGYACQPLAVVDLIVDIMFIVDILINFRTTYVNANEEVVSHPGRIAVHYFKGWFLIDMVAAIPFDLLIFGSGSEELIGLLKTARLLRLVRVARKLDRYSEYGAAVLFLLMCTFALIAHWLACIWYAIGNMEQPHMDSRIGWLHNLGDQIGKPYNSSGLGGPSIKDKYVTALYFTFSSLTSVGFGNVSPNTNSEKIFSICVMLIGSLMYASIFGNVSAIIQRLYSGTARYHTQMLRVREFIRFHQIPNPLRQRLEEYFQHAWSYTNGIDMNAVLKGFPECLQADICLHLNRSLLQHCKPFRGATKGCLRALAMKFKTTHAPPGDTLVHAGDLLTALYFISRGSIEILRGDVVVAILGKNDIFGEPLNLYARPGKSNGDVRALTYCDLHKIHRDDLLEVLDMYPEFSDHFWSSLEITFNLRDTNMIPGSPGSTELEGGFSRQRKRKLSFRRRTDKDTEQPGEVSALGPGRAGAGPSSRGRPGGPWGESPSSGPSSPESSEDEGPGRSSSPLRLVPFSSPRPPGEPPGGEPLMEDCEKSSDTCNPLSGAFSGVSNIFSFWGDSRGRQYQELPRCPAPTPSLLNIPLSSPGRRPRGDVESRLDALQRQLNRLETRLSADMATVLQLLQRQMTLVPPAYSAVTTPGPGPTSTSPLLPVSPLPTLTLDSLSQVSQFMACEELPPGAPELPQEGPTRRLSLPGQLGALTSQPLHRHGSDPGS
Method: hERG test was performed by Ice Bioscience Co., Ltd. (Beijing, China) using the QPatch HTX method according to the manufacturer's instruction. 5 doses of CS27109 were tested, including […], each one with a duplicate. The tested values (current) were normalized to the negative control (0.1% DMSO), and IC50 was calculated based on the normalized data.

HFD-CHOL hamster model = test: HFD-CHOL hamster model, serum biochemical test; assay type: in vivo, golden hamster; conditions: mean ± SD; for HDL-c: model 3.6 ± 1.1, normal 1.6 ± 0.45; for LDL-c: model 17 ± 6.1, normal 1.3 ± 0.54; for TG: model 26 ± 24, normal 2.1 ± 1.1; for TC: model 37 ± 13, normal 3.1 ± 0.72; for ALT: model 278 ± 174, normal 94 ± 58; for AST: model 638 ± 323, normal 98 ± 45
Method: Hamster study: 58 golden hamsters ♂ aged 6–8 weeks were purchased from Beijing Vital River Laboratory Animal Technology Co., Ltd. 10 animals were kept with a diet of food control as normal control, and the other 48 animals were fed 40% fat and 1.25% cholesterol (HFD-CHOL, D12108C, Research diet) as a model group. […] Animals in the normal and model group were given solvent by oral gavage. All drugs, including solvent, were administered consecutively for 4 weeks and once a day. After sacrifice, blood was collected and serum was isolated for the AST, ALT, TG, TC, LDL-c, and HDL-c test.

[3] = heart, read-out: Heart concentration
[4] = liver, read-out: Liver concentration
[5] = serum, read-out: Serum concentration
[6] = 5 mg/kg (L) oral once a day 4 weeks
[7] = 15 mg/kg (CS27109-M, MGL-3196) oral once a day 4 weeks
[8] = 45 mg/kg (H) oral once a day 4 weeks
[9] = HFD SD rat, 5 mg/kg (L) oral once a day 4 weeks
[10] = HFD SD rat, 15 mg/kg (CS27109-M, MGL-3196) oral once a day 4 weeks
[11] = HFD SD rat, 45 mg/kg (H) oral once a day 4 weeks
[12] = 3 mg/kg (L) oral once a day 4 weeks
[13] = 10 mg/kg (CS27109-M, MGL-3196) oral once a day 4 weeks
[14] = 30 mg/kg (H) oral once a day 4 weeks
[15] = WD + CCL4 mouse, 4 weeks, MGL3196 10 mg/kg, CS27109 high-dose (30 mg/kg), vs model

## N#Cc1nn(-c2cc(Br)c(Oc3n[nH]c(=O)c4ccccc34)c(Br)c2)c(=O)[nH]c1=O [CS27109]
[1]; 10 mg/kg oral, average of 2H and 8H
  average of concentration liver/heart: 26.69
[1]; [3]
  concentration at 2 h: 95.7 ng/g
  concentration at 8 h: 309 ng/g
[1]; [4]
  concentration at 2 h: 1670 ng/g
  concentration at 8 h: 11100 ng/g
[1]; [5]
  concentration at 2 h: 670 ng/mL
  concentration at 8 h: 3620 ng/mL
HFD SD rat model; [6]
  Liver TC: 11 ± 1.1 µmol/g
  Liver TG: 71 ± 28 µmol/g
  TG: 0.19 ± 0.08 mmol/L
  HDL-c: 0.78 ± 0.18 mmol/L
  LDL-c: 1.6 ± 0.74 mmol/L
  TC: 4.4 ± 1.8 mmol/L
  ALT: 85 ± 34 U/L
  AST: 213 ± 78 U/L
HFD SD rat model; [7]
  Liver TC: 10 ± 0.74 µmol/g
  Liver TG: 54 ± 24 µmol/g
  TG: 0.22 ± 0.06 mmol/L
  HDL-c: 0.98 ± 0.32 mmol/L
  LDL-c: 0.84 ± 0.44 mmol/L
  TC: 2.9 ± 0.98 mmol/L
  ALT: 68 ± 24 U/L
  AST: 218 ± 82 U/L
HFD SD rat model; [8]
  Liver TC: 10 ± 2.2 µmol/g
  Liver TG: 69 ± 21 µmol/g
  TG: 0.20 ± 0.08 mmol/L
  HDL-c: 1.0 ± 0.30 mmol/L
  LDL-c: 0.59 ± 0.32 mmol/L
  TC: 2.3 ± 0.65 mmol/L
  ALT: 89 ± 50 U/L
  AST: 253 ± 131 U/L
HFD SD rat model; HFD SD rat, 4 weeks, CS27109 5-45 mg/kg dose-dependent, MGL3196 15 mg/kg, vs model
  liver steatosis score (H and E): lessened steatosis
HFD SD rat model; HFD SD rat, 4 weeks, CS27109 5-45 mg/kg, MGL3196 15 mg/kg, vs model
  liver inflammation score (H and E): dose-dependently reduced liver inflammation, but without a significant effect
HFD SD rat model; HFD SD rat, 4 weeks, high dose CS27109 (45 mg/kg) only, vs model
  NAS score: decreased the NAS score
HFD SD rat model; [9]
  H/B (heart/body weight ratio): 0.27 ± 0.03%
  L/B (liver/body weight ratio): 4.0 ± 0.52 %
HFD SD rat model; [10]
  H/B (heart/body weight ratio): 0.28 ± 0.02 %
  L/B (liver/body weight ratio): 4.1 ± 0.56 %
HFD SD rat model; [11]
  H/B (heart/body weight ratio): 0.27 ± 0.02%
  L/B (liver/body weight ratio): 3.9 ± 0.54 %
[2]
  diarrhea in treated animals: rarely observed
WD + CCL4 mouse model; [12]
  LDL-c: 0.40 ± 0.10 mmol/L
  TG: 1.2 ± 0.34 mmol/L
  HDL-c: 0.85 ± 0.24 mmol/L
  TC: 2.3 ± 0.40 mmol/L
  CK activity: 331 ± 386 U/L
  AST: 13447 ± 6633 U/L
  ALT: 19162 ± 4012 U/L
WD + CCL4 mouse model; [13]
  LDL-c: 0.37 ± 0.07 mmol/L
  TG: 1.2 ± 0.19 mmol/L
  HDL-c: 0.94 ± 0.25 mmol/L
  TC: 2.2 ± 0.36 mmol/L
  CK activity: 201 ± 95 U/L
  AST: 4804 ± 1121 U/L
  ALT: 10478 ± 2131 U/L
WD + CCL4 mouse model; [14]
  LDL-c: 0.39 ± 0.11 mmol/L
  TG: 1.2 ± 0.18 mmol/L
  HDL-c: 1.2 ± 0.31 mmol/L
  TC: 2.4 ± 0.48 mmol/L
  CK activity: 280 ± 147 U/L
  AST: 3660 ± 1208 U/L
  ALT: 7832 ± 2422 U/L
WD + CCL4 mouse model; [15]
  liver inflammation score (H and E): notable reduction
  liver steatosis score (H and E): notable reduction
WD + CCL4 mouse model; WD + CCL4 mouse, 4 weeks, only low-dose CS27109 (3 mg/kg), vs model
  liver ballooning score (H and E): significantly reduced liver ballooning
WD + CCL4 mouse model; WD + CCL4 mouse, 4 weeks, three doses of CS27109 (3, 10, 30 mg/kg), MGL3196 10 mg/kg, vs model
  area of liver fibrosis (sirius red): prominently reduced the area of the fibrosis
WD + CCL4 mouse model; WD + CCL4 mouse, 3 mg/kg (L) oral once a day 4 weeks
  L/B (liver/body weight ratio): 3.3 ± 0.40%
WD + CCL4 mouse model; WD + CCL4 mouse, 10 mg/kg (CS27109-M, MGL-3196) oral once a day 4 weeks
  L/B (liver/body weight ratio): 3.2 ± 0.68%
WD + CCL4 mouse model; WD + CCL4 mouse, 30 mg/kg (H) oral once a day 4 weeks
  L/B (liver/body weight ratio): 3.2 ± 0.79%
hERG
  IC50: > 30 µM
  hERG test result: cardiac tolerable
HFD-CHOL hamster model; [12]
  HDL-c: 2.6 ± 0.62 mmol/L
  LDL-c: 13 ± 4.3 mmol/L
  TG: 32 ± 31 mmol/L
  TC: 29 ± 8.6 mmol/L
  ALT: 226 ± 104 U/L
  AST: 564 ± 317 U/L
HFD-CHOL hamster model; [13]
  HDL-c: 3.0 ± 0.52 mmol/L
  LDL-c: 12 ± 3.8 mmol/L
  TG: 17 ± 26 mmol/L
  TC: 25 ± 7.4 mmol/L
  ALT: 141 ± 133 U/L
  AST: 582 ± 383 U/L
HFD-CHOL hamster model; [14]
  HDL-c: 2.6 ± 0.53 mmol/L
  LDL-c: 8.7 ± 4.1 mmol/L
  TG: 11 ± 19 mmol/L
  TC: 19 ± 7.9 mmol/L
  AST: 416 ± 158 U/L
